Measurements from paper PMC3038857, “Using Nuclear Receptor Activity to Stratify Hepatocarcinogens” (PLoS ONE, 2011).

Legend:
[1] = target: T1, ESR1 (estrogen receptor 1) (Homo sapiens, UniProt P03372); experiment: ATG_ERE_CIS: Factorial reporter gene assay (HepG2); format: cell-based; details: HepG2
T1 construct: expressed in transfected cells; host or cells: HepG2
Outline: (§1)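 HepG2 cells transfected with multiplexed reporter libraries: cis-acting binding-site reporters (CIS) and a one-hybrid nuclear-receptor trans system (TRANS). Chemicals tested at seven concentrations, starting at the maximum tolerated concentration with three-fold serial dilutions.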

CYP2B6 = experiment: CLZD_CYP2B6: Change in expression of CYP2B6 (primary human hepatocytes); format: cell-based; details: 24 hr
Outline: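 Read-out: mRNA change by multiplexed quantitative nuclease protection assay. Primary human hepatocytes; 5 concentrations, 0.004-40 µM; exposures 6, 24, 48 hr.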

CAR (NR1I3) [2] = target: T2, CAR (NR1I3) (Homo sapiens, UniProt Q14994); experiment: ATG_CAR_TRANS: Factorial reporter gene assay (HepG2); format: cell-based; design: endogenous in cells; host or cells: HepG2
T2 sequence (Q14994 1-352): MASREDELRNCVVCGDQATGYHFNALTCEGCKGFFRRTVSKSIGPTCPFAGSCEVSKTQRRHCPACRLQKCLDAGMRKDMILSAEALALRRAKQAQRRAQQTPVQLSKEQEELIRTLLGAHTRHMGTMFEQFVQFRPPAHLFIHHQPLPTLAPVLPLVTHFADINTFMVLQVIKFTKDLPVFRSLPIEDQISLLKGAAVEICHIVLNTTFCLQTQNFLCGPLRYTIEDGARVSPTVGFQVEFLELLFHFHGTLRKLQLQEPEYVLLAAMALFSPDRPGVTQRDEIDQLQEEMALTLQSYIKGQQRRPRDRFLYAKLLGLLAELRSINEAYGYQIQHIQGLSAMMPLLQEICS
Description: (§2) A multiple reporter transcription unit (MRTU) library consisting of 48 transcription factor binding sites was transfected into the HepG2 human liver hepatoma cell line. In addition to the cis-acting reporter genes (CIS), a modification of the approach was used to generate a trans-system (TRANS) with a mammalian one-hybrid assay consisting of an additional 25 MRTU library reporting the activity of nuclear receptor super-family members. […] These assays were performed by Attagene Inc. (Morrisville NC) under contract to EPA.
(§3) In addition to the cis-acting reporter genes (CIS), a modification of the approach was used to generate a trans-system (TRANS) with a mammalian one-hybrid assay consisting of an additional 25 MRTU library reporting the activity of nuclear receptor super-family members. […] Chemicals were then tested in the CIS and TRANS assays at seven concentrations starting at the MTC and followed by three-fold serial dilutions. These assays were performed by Attagene Inc. (Morrisville NC) under contract to EPA. Detailed description of the methods, data and analysis methods for this dataset will be presented in a separate publication.

CAR (NR1I3) [3] = target: T2, CAR (NR1I3); experiment: ATG_PBREM_CIS: Factorial reporter gene assay (HepG2); format: cell-based; design: endogenous in cells; host or cells: HepG2; scale not given here
Outline: as §1

CAR (NR1I3) [4] = target: T2, CAR (NR1I3); experiment: NVS_NR_hCAR_Agonist: Human CAR CITCO Agonist (cell-free HTS); format: biochemical; details: scale not given, looks like -log10 of molar active concentration, 0 = no activity
Text: These are a collection of biochemical assays measuring binding constants and enzyme inhibition values. Chemicals were initially screened at a single concentration in duplicate wells at a concentration of 10 [drawing 63] M for cytochrome P-450 assays and 25 [drawing 64] M for all others. […] These assays were run by Caliper Life Sciences (Hanover, MD) under contract to EPA. Short assay descriptions are available at: http://www.caliperls.com/products/contract-research/in-vitro/.
Cell-free HTS Assays: A collection of biochemical assays measuring binding constants and enzyme inhibition values. […] These assays were run by Caliper Life Sciences (Hanover, MD) under contract to EPA. Short assay descriptions are available at http://www.caliperls.com/products/contract-research/in-vitro/. Values for all endpoints were imported into GeneData Screener (Basel, Switzerland) and normalised to solvent controls from the same plate as the tested compounds and expressed as percent of neutral control. Concentration-response curves were fit in GeneData Screener (Basel, Switzerland) Condeseo module using the Hill equation and AC50 values were determined. […] Detailed description of the methods, data and analysis methods for this dataset are described in a separate publication.

[5] = target: T3, PPARD (peroxisome proliferator-activated receptor delta) (Homo sapiens, UniProt Q03181); experiment: ATG_PPARd_TRANS: Factorial reporter gene assay (HepG2); format: cell-based; design: scale not given here; details: scale not given, looks like -log10 of molar active concentration, 0 = no activity
T3 construct: expressed in transfected cells; host or cells: HepG2
T3 sequence (Q03181 1-441): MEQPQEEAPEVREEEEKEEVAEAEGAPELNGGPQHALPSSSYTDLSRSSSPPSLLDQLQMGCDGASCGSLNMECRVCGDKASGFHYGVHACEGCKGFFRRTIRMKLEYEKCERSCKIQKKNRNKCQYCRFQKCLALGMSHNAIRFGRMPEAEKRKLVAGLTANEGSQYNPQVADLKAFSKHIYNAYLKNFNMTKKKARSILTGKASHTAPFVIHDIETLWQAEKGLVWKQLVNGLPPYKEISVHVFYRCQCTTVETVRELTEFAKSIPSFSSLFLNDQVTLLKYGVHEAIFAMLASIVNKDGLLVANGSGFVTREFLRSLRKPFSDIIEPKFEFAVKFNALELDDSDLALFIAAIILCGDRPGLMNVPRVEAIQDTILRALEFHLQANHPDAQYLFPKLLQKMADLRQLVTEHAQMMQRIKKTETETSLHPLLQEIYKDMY
Description: as §2, §3

[6] = scale not given, looks like -log10 of molar active concentration, 0 = no activity
[7] = HepG2, scale not given, looks like -log10 of molar active concentration, 0 = no activity

T1 sequence (P03372 whole entry): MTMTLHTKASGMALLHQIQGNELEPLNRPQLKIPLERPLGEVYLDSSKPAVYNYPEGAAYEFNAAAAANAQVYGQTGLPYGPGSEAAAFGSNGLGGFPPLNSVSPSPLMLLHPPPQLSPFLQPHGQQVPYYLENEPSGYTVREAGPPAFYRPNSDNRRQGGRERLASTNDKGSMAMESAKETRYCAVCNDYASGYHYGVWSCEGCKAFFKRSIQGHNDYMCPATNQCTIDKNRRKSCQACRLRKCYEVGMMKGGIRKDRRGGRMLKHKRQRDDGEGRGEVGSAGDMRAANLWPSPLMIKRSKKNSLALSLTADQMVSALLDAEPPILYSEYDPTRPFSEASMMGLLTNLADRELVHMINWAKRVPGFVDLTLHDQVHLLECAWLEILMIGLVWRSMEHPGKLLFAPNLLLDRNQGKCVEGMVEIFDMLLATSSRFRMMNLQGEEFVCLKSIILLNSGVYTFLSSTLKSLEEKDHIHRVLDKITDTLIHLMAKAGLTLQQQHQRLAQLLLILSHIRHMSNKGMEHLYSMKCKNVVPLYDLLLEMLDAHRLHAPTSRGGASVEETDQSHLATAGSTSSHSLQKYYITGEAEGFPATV

Row | SMILES | ATG_ERE_CIS [1, 6] | CLZD_CYP2B6_24 (CYP2B6; [6]) | ATG_CAR_TRANS (CAR (NR1I3) [2]; [7]) | ATG_PBREM_CIS (CAR (NR1I3) [3]; [7]) | NVS_NR_hCAR_Agonist (CAR (NR1I3) [4]) | ATG_PPARd_TRANS [5] | CLZD_CYP2B6_24 (CYP2B6) | further results
1 | COC(=O)c1ccccc1CS(=O)(=O)NC(=O)Nc1nc(OC)cc(OC)n1 [r33] | 0 | 0 | 0 | 0 | 0 | 0 |  | 
2 | CC(C)N1C(=O)c2ccccc2NS1(=O)=O [r37] | 0 | 0 |  |  |  | 0 |  | 
3 | COc1ccc(-c2ccccc2)cc1NNC(=O)OC(C)C [r38] | 0 | 5.354 | 0 | 0 | 0 |  |  | 
4 | Cc1c(COC(=O)C2C(/C=C(\Cl)C(F)(F)F)C2(C)C)cccc1-c1ccccc1 (stereo not shown) [r39] | 0 | 5.042 | 0 | 0 | 0 | 0 |  | 
5 | CC(C)(c1ccc(O)cc1)c1ccc(O)cc1 [r40] | 6.194 | 0 | 0 | 0 | 0 | 0 |  | 
6 | OB(O)O [r41] | 0 |  | 0 | 0 | 0 | 0 |  | 
7 | O=C(Nc1ccccc1-c1ccc(Cl)cc1)c1cccnc1Cl [r42] | 0 | 5.164 | 0 | 0 | 0 | 0 |  | 
8 | CCC(C)n1c(=O)[nH]c(C)c(Br)c1=O (stereo not shown) [r43] | 0 | 4.936 | 0 | 0 | 0 |  |  | 
9 | N#Cc1cc(Br)c(O)c(Br)c1 [r44] | 0 | 0 | 0 | 0 | 0 | 0 |  | 
10 | C=CCOC(=O)C(C)(C)OC(=O)c1cc(-n2c(=O)cc(C(F)(F)F)n(C)c2=O)ccc1Cl [r47] | 0 |  | 0 | 0 | 0 | 0 |  | 
11 | CCC(C)Nc1c([N+](=O)[O-])cc(C(C)(C)C)cc1[N+](=O)[O-] (stereo not shown) [r48] | 0 | 5.323 |  |  |  | 0 |  | 
12 | CNC(=O)Oc1cccc2ccccc12 [r52] | 4.244 |  | 0 | 0 | 0 | 0 |  | 
13 | CC1=C(C(=O)Nc2ccccc2)SCCO1 [r53] | 0 | 4.923 |  |  |  | 0 |  | 
14 | COc1cc(Cl)c(OC)cc1Cl [r57] | 0 | 5.434 |  |  |  |  |  | 
15 | CC(C)OC(=O)Nc1cccc(Cl)c1 [r59] | 0 | 4.931 |  |  |  | 0 |  | 
16 | COc1nc(C)nc(NC(=O)NS(=O)(=O)c2ccccc2Cl)n1 [r62] | 0 | 0 | 0 | 0 | 0 |  |  | 
17 | COc1nc(C)nc(NC(=O)NS(=O)(=O)c2ccccc2Cl)n1 [r63] | 0 | 0 | 0 | 0 | 0 |  |  | 
18 | Cc1ccccc1CO[C@@H]1C[C@@]2(C(C)C)CC[C@]1(C)O2 [r64] |  | 0 | 0 | 0 | 0 | 0 |  | 
19 | C#CCC1=C(C)[C@H](OC(=O)[C@H]2[C@H](C=C(C)C)C2(C)C)CC1=O [r249] |  |  |  |  |  |  | 5.011 | ATG_PBREM_CIS (CAR (NR1I3) [3]; HepG2): 5.276
20 | CCCN(CCC)c1c([N+](=O)[O-])cc(C(F)(F)F)c(N)c1[N+](=O)[O-] [r252] |  |  |  |  |  |  | 5.057 | ATG_PBREM_CIS (CAR (NR1I3) [3]; HepG2): 4.337
21 | CSc1nc(NC(C)C)nc(NC(C)C)n1 [r256] |  |  |  |  |  |  | 5.237 | 
22 | CCCC1COC(Cn2cncn2)(c2ccc(Cl)cc2Cl)O1 (stereo not shown) [r262] |  |  |  |  |  |  | 6.312 | 
23 | CC(C)=CC1C(C(=O)OCc2coc(Cc3ccccc3)c2)C1(C)C (stereo not shown) [r280] |  |  |  |  |  |  | 5.057 | ATG_CAR_TRANS (CAR (NR1I3) [2]; HepG2 reporter): 4.585
24 | CCc1ccc(C(=O)NN(C(=O)c2cc(C)cc(C)c2)C(C)(C)C)cc1 [r290] |  |  |  |  |  |  | 5.246 | 
25 | CCc1nn(C)c(C(=O)NCc2ccc(C(C)(C)C)cc2)c1Cl [r291] |  |  |  |  |  |  | 5.278 | ATG_PBREM_CIS (CAR (NR1I3) [3]; HepG2 reporter): 5.745
26 | COc1cccc(C(=O)NN(C(=O)c2cc(C)cc(C)c2)C(C)(C)C)c1C [row 202] |  |  |  |  |  |  | 5.305 | 
27 | CCc1cccc(C)c1N(C(=O)CCl)C(C)COC (stereo not shown) [row 208] |  |  |  |  |  |  | 5.27 | 
28 | CCN(CC)C(=O)C(C)Oc1cccc2ccccc12 (stereo not shown) [row 219] |  |  |  |  |  |  | 4.599 | ATG_ERE_CIS [1]: 4.481
29 | CC(C)Oc1cc(-n2nc(C(C)(C)C)oc2=O)c(Cl)cc1Cl [row 225] |  |  |  |  |  |  | 6.222 | 
